Consider 13 compounds from patent US20260022142A1, “MACROCYCLIC IMMUNOMODULATORS” (Bristol-Myers Squibb Company, priority 2022, published 2026).

Structures are written as SMILES. pIC50: −log10 of the molar value. Bridge positions count the residues as written; N and C are the ends. Square brackets hold non-standard residues; d marks the D form. Peptide text beside a SMILES is read from it. * marks the point of attachment. ξ: configuration not given here. Phe(4-CONH2) = NC(=O)c1ccc(C[C@H](N)C(=O)O)cc1; Bip = N[C@@H](Cc1ccc(-c2ccccc2)cc1)C(=O)O; Phe(3-Me) = Cc1cccc(C[C@H](N)C(=O)O)c1; ξBip = NC(Cc1ccc(-c2ccccc2)cc1)C(=O)O; Phe(2-Me) = Cc1ccccc1C[C@H](N)C(=O)O; Bta = N[C@@H](Cc1csc2ccccc12)C(=O)O; Val(3-OH) = CC(C)(O)[C@H](N)C(=O)O; hArg = N=C(N)NCCCC[C@H](N)C(=O)O; 4Pal = N[C@@H](Cc1ccncc1)C(=O)O; Cha = N[C@@H](CC1CCCCC1)C(=O)O; Cit = NC(=O)NCCC[C@H](N)C(=O)O; Thr(3ξ) = CC(O)[C@H](N)C(=O)O; dOrn = NCCC[C@@H](N)C(=O)O; Carboxymethyl = O=C(O)C*; Orn = NCCC[C@H](N)C(=O)O; Aun = NCCCCCCCCCCC(=O)O; Dab = NCC[C@H](N)C(=O)O; Dap = NC[C@H](N)C(=O)O; ξD = NC(CC(=O)O)C(=O)O; AEEA = NCCOCCOCC(=O)O

T1 sequence (Q15116 25-288): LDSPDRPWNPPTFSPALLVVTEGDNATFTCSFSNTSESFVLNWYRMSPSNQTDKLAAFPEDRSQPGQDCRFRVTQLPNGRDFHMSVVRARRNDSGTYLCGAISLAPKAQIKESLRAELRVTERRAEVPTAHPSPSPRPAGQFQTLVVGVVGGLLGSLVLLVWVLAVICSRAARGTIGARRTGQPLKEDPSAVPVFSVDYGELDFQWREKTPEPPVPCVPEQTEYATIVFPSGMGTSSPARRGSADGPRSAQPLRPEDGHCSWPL

The assay has as its target T1, PD-1/PD-L1 interaction (PE-labeled human PD-L1-Ig binding to Jurkat cell line over-expressing human PD-1) (Homo sapiens, UniProt Q15116).
T1 construct: expressed in transfected cells; host or cells: Jurkat
In words: Jurkat-PD-1 Cell Binding High-Content Screening Assay (CBA). To be noted: Jurkat cell line over-expressing human PD-1; PE-labeled PD-L1-Ig 20 nM final; read-out: Jurkat hPD1-PDL1 IC50. Type of assay: cell-based. The procedure, abridged:
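Jurkat cells stably over-expressing human PD-1 were seeded in DMEM with 10% fetal calf serum and pre-incubated with compound for 2 h at 37° C. PE-labeled human PD-L1-Ig was then added at 20 nM final for 1 hour, after which cells were fixed with paraformaldehyde, Hoechst-stained and imaged by high-content microscopy.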
With `Cc1cccc(C[C@@H]2NC(=O)[C@H](CC(=O)O)NC(=O)[C@H](Cc3ccc(OCC(=O)O)cc3)NC(=O)[C@H](Cc3ccc(OCC(=O)O)cc3)NC(=O)CSC[C@@H](C(=O)N[C@@H](CCN)C(=O)NCCCCCCCCCCC(=O)O)NC(=O)[C@H]([C@@H](C)O)NC(=O)[C@H](C(C)C)NC(=O)[C@H](CC(C)C)NC(=O)[C@H](CCN)NC(=O)[C@@H](CC(C)C)NC(=O)[C@H](CCCN)NC(=O)[C@H](Cc3ccc(O)cc3)NC(=O)[C@H](Cc3ccc(-c4ccccc4)cc3)NC(=O)[C@H](CC(C)C)NC2=O)c1` [Compound 2747] ({CH2CO}-Y(Carboxymethyl)Y(Carboxymethyl)D[Phe(3-Me)]L[Bip]Y[Orn][dL][Dab]LVTC[Dab][Aun]-OH; thioether N-14), the pIC50 (in general, the negative decadic logarithm of the IC50, by convention in mol/L) is 7.35.
With `CC(C)C[C@H]1NC(=O)[C@H](CCCN)NC(=O)[C@H](C(C)C)NC(=O)[C@H](Cc2ccc(-c3ccccc3)cc2)NC(=O)[C@H](C(C)C)NC(=O)[C@H](Cc2c[nH]c3ccccc23)NC(=O)[C@H](CC(=O)O)NC(=O)[C@H](Cc2ccc(OCC(=O)O)cc2)NC(=O)[C@H](CCCCNC(=N)N)NC(=O)CSC[C@@H](C(=O)N[C@@H](CC(N)=O)C(=O)NCCOCCOCC(=O)N[C@@H](CCCCN)C(=O)NCCCCCCCCCCC(=O)O)NC(=O)[C@H](C(C)O)NC(=O)[C@H](C(C)C)NC(=O)[C@H](CC2CCCCC2)NC(=O)[C@H](CCN)NC1=O` (stereo partly drawn) [Compound 3026] ({CH2CO}-[hArg]Y(Carboxymethyl)DWV[Bip]V[Orn][dL][Dab][Cha]V[Thr(3ξ)]CN[AEEA]K[Aun]-OH; thioether N-14) the figure was 8.00; with `CC(C)C[C@H]1NC(=O)[C@H](CCCN)NC(=O)[C@H](C(C)C)NC(=O)[C@H](Cc2ccc(-c3ccccc3)cc2)NC(=O)[C@H](C(C)C)NC(=O)[C@H](Cc2c[nH]c3ccccc23)NC(=O)[C@H](CC(=O)O)NC(=O)[C@H](Cc2ccc(OCC(=O)O)cc2)NC(=O)[C@H](CCCCNC(=N)N)NC(=O)CSC[C@@H](C(=O)NCC(=O)NCCOCCOCC(=O)N[C@@H](CCCN)C(=O)NCCCCCCCCCCC(=O)O)NC(=O)[C@H](CO)NC(=O)[C@H](C(C)C)NC(=O)[C@H](CC2CCCCC2)NC(=O)[C@H](CCN)NC1=O` [Compound 3035] ({CH2CO}-[hArg]Y(Carboxymethyl)DWV[Bip]V[Orn][dL][Dab][Cha]VSCG[AEEA][Orn][Aun]-OH; thioether N-14), 7.97; with `Cc1cccc(C[C@@H]2NC(=O)C(CC(=O)O)NC(=O)[C@H](Cc3ccc(OCC(=O)O)cc3)NC(=O)[C@H](CN)NC(=O)CSC[C@@H](C(=O)NCCOCCOCC(=O)N[C@@H](CCCCN)C(=O)NCCCCCCCCCCC(=O)O)NC(=O)[C@H]([C@@H](C)O)NC(=O)[C@H](C(C)C)NC(=O)[C@H](CC3CCCCC3)NC(=O)[C@H](CCN)NC(=O)[C@@H](CC(C)C)NC(=O)[C@H](CCCN)NC(=O)[C@H](CCCNC(N)=O)NC(=O)C(Cc3ccc(-c4ccccc4)cc3)NC(=O)[C@H](C(C)C)NC2=O)c1` (stereo partly drawn) [Compound 1179] ({CH2CO}-[Dap]Y(Carboxymethyl)[ξD][Phe(3-Me)]V[ξBip][Cit][Orn][dL][Dab][Cha]VTC[AEEA]K[Aun]-OH; thioether N-14), 7.99.
On to `CC[C@H](C)[C@@H]1NC(=O)[C@H](Cc2ccc(-c3ccccc3)cc2)NC(=O)[C@H](C(C)C)NC(=O)[C@H](Cc2cccc(C)c2)NC(=O)[C@H](CC(=O)O)NC(=O)[C@H](Cc2ccc(C(=O)O)cc2)NC(=O)[C@H](Cc2ccncc2)NC(=O)CSC[C@@H](C(=O)N[C@@H](C)C(=O)N[C@@H](CC(=O)O)C(=O)NCC(=O)NCCCCCCCCCCC(=O)O)NC(=O)[C@H]([C@@H](C)O)NC(=O)[C@H](C(C)C)NC(=O)[C@H](CC2CCCCC2)NC(=O)[C@H](CCN)NC(=O)[C@@H](CC(C)C)NC(=O)[C@H](CCCN)NC1=O` [Compound 1042], for which the pIC50 is 7.82.
With `CC(=O)NCCCC[C@@H]1NC(=O)[C@H](Cc2ccc(-c3ccccc3)cc2)NC(=O)[C@H](C(C)C)NC(=O)[C@H](Cc2c[nH]c3ccccc23)NC(=O)[C@H](CC(=O)O)NC(=O)[C@H](Cc2ccc(OCC(=O)O)cc2)NC(=O)[C@H](CCCNC(=N)N)NC(=O)CSC[C@@H](C(=O)NCCOCCOCC(=O)NCCCCCCCCCCC(=O)O)NC(=O)[C@H](C(C)O)NC(=O)[C@H](C(C)C)NC(=O)[C@H](CC2CCCCC2)NC(=O)[C@H](CCN)NC(=O)[C@@H](CC(C)C)NC(=O)[C@H](CCCN)NC1=O` (stereo partly drawn) [Compound 3335] ({CH2CO}-RY(Carboxymethyl)DWV[Bip]K(Ac)[Orn][dL][Dab][Cha]V[Thr(3ξ)]C[AEEA][Aun]-OH; thioether N-14), the pIC50 is 8.09.
For the compound `CC(C)C[C@H]1NC(=O)[C@H](CCCN)NC(=O)[C@H](C(C)C)NC(=O)[C@H](Cc2ccc(-c3ccccc3)cc2)NC(=O)[C@H](C(C)C)NC(=O)[C@H](Cc2csc3ccccc23)NC(=O)[C@H](CC(=O)O)NC(=O)[C@H](Cc2ccc(OCC(=O)O)cc2)NC(=O)[C@H](CCCCNC(=N)N)NC(=O)CSC[C@@H](C(=O)NCC(=O)NCCOCCOCC(=O)N[C@H](CCCN)C(=O)NCCCCCCCCCCC(=O)O)NC(=O)[C@H](CO)NC(=O)[C@H](C(C)C)NC(=O)[C@H](CC2CCCCC2)NC(=O)[C@H](CCN)NC1=O` [Compound 3065] ({CH2CO}-[hArg]Y(Carboxymethyl)D[Bta]V[Bip]V[Orn][dL][Dab][Cha]VSCG[AEEA][dOrn][Aun]-OH; thioether N-14), the pIC50 is 7.72.
Take `Cc1cccc(C[C@@H]2NC(=O)[C@H](CC(=O)O)NC(=O)[C@H](Cc3ccc(OCC(=O)O)cc3)NC(=O)[C@H](Cc3ccc(C(N)=O)cc3)NC(=O)CSC[C@@H](C(=O)N[C@@H](CCN)C(=O)NCCCCCCCCCCC(=O)O)NC(=O)[C@H](CCC(N)=O)NC(=O)[C@H](C(C)(C)O)NC(=O)[C@H](CC3CCCCC3)NC(=O)[C@H](CCN)NC(=O)[C@@H](CC(C)C)NC(=O)[C@H](CCCN)NC(=O)[C@H](Cc3ccc(OCC(=O)O)cc3)NC(=O)[C@H](Cc3ccc(-c4ccccc4)cc3)NC(=O)[C@H](Cc3ccc(OCC(=O)O)cc3)NC2=O)c1` [Compound 2154] ({CH2CO}-[Phe(4-CONH2)]Y(Carboxymethyl)D[Phe(3-Me)]Y(Carboxymethyl)[Bip]Y(Carboxymethyl)[Orn][dL][Dab][Cha][Val(3-OH)]QC[Dab][Aun]-OH; thioether N-14): the pIC50 was 8.04.
Turning to `Cc1cccc(C[C@@H]2NC(=O)[C@H](CC(=O)O)NC(=O)[C@H](Cc3ccncc3)NC(=O)[C@H](Cc3ccc(OCC(=O)O)cc3)NC(=O)CSC[C@@H](C(=O)N[C@@H](CCN)C(=O)NCCCCCCCCCCC(=O)O)NC(=O)[C@H](CCCN)NC(=O)[C@H](C(C)C)NC(=O)[C@H](CC3CCCCC3)NC(=O)[C@H](CCN)NC(=O)[C@@H](CC(C)C)NC(=O)[C@H](CCCN)NC(=O)[C@H](Cc3ccc(O)cc3)NC(=O)[C@H](Cc3ccc(-c4ccccc4)cc3)NC(=O)[C@H](C(C)C)NC2=O)c1` [Compound 2710] ({CH2CO}-Y(Carboxymethyl)[4Pal]D[Phe(3-Me)]V[Bip]Y[Orn][dL][Dab][Cha]V[Orn]C[Dab][Aun]-OH; thioether N-14), the pIC50 is 7.73.
With `CC(C)C[C@H]1NC(=O)[C@H](CCCN)NC(=O)[C@H](Cc2ccc(O)cc2)NC(=O)[C@H](Cc2ccc(-c3ccccc3)cc2)NC(=O)[C@H](Cc2ccc(O)cc2)NC(=O)[C@H](Cc2c[nH]c3ccccc23)NC(=O)[C@H](CC(=O)O)NC(=O)[C@H](Cc2ccc(OCC(=O)O)cc2)NC(=O)[C@H](CN)NC(=O)CSC[C@@H](C(=O)NCCOCCOCC(=O)NCCCCCCCCCCC(=O)O)NC(=O)[C@H](CCCCN)NC(=O)[C@H](Cc2ccc(O)cc2)NC(=O)[C@H](CC2CCCCC2)NC(=O)[C@H](CCN)NC1=O` [Compound 2517] ({CH2CO}-[Dap]Y(Carboxymethyl)DWY[Bip]Y[Orn][dL][Dab][Cha]YKC[AEEA][Aun]-OH; thioether N-14) the figure was 6.56.
In the case of `Cc1cccc(C[C@@H]2NC(=O)[C@H](CC(=O)O)NC(=O)[C@H](Cc3ccc(OCC(=O)O)cc3)NC(=O)[C@H](CN)NC(=O)CSC[C@@H](C(=O)N[C@@H](C)C(=O)N[C@@H](CCC(=O)O)C(=O)NCCCCCCCCCCC(=O)O)NC(=O)[C@H](CCCN)NC(=O)[C@H](C(C)C)NC(=O)[C@H](CC3CCCCC3)NC(=O)[C@H](CCN)NC(=O)[C@@H](CC(C)C)NC(=O)[C@H](CCCN)NC(=O)[C@H](CCCNC(N)=O)NC(=O)[C@H](Cc3ccc(-c4ccccc4)cc3)NC(=O)[C@H](C(C)C)NC2=O)c1` [Compound 2617] ({CH2CO}-[Dap]Y(Carboxymethyl)D[Phe(3-Me)]V[Bip][Cit][Orn][dL][Dab][Cha]V[Orn]CAE[Aun]-OH; thioether N-14), the pIC50 is 8.20.
Consider `Cc1cccc(C[C@@H]2NC(=O)[C@H](CC(=O)O)NC(=O)[C@H](Cc3ccc(OCC(=O)O)cc3)NC(=O)[C@H](CCCCNC(=N)N)NC(=O)CSC[C@@H](C(=O)NCCOCCOCC(=O)NCCCCCCCCCCC(=O)O)NC(=O)[C@H](CCC(N)=O)NC(=O)[C@H](C(C)C)NC(=O)[C@H](CC3CCCCC3)NC(=O)[C@H](CCN)NC(=O)[C@@H](CC(C)C)NC(=O)[C@H](CCN)NC(=O)[C@H](Cc3ccc(O)cc3)NC(=O)[C@H](Cc3ccc(-c4ccccc4)cc3)NC(=O)[C@H](C(C)C)NC2=O)c1` [Compound 3396] ({CH2CO}-[hArg]Y(Carboxymethyl)D[Phe(3-Me)]V[Bip]Y[Dab][dL][Dab][Cha]VQC[AEEA][Aun]-OH; thioether N-14), for which the pIC50 was 8.04.
With `Cc1cccc(C[C@@H]2NC(=O)[C@H](CC(=O)O)NC(=O)[C@H](Cc3ccc(OCC(=O)O)cc3)NC(=O)[C@H](Cc3ccncc3)NC(=O)CSC[C@@H](C(=O)N[C@@H](CCN)C(=O)NCCCCCCCCCCC(=O)O)NC(=O)[C@H](CO)NC(=O)[C@H](C(C)(C)O)NC(=O)[C@H](CC3CCCCC3)NC(=O)[C@H](CCN)NC(=O)[C@@H](CC(C)C)NC(=O)[C@H](CCCN)NC(=O)[C@H](Cc3ccc(OCC(=O)O)cc3)NC(=O)[C@H](Cc3ccc(-c4ccccc4)cc3)NC(=O)[C@H](Cc3ccccc3C)NC2=O)c1` [Compound 2193] ({CH2CO}-[4Pal]Y(Carboxymethyl)D[Phe(3-Me)][Phe(2-Me)][Bip]Y(Carboxymethyl)[Orn][dL][Dab][Cha][Val(3-OH)]SC[Dab][Aun]-OH; thioether N-14) the figure was 7.66.
